Experimental findings from PMC9792776 (Frontiers in Pharmacology, 2022) are described below.

The nature of data set [1]: Fraction unbound (fu) in human plasma. Format: in vitro ADME.
A short description of data set [2]: Log Po:w (octanol-water partition coefficient). Format: physicochemical. From the text: TABLE 1 Model development and model parameters. | column: Value
Data set [3] in a line: In vitro Caco-2 cell permeability. Format: in vitro ADME. The settings on record: human. From the text: The first-order absorption model has different absorption rate constants (ka) and fraction available from dosage form (fa) to simulate absorption processes in fasting and fed states. […] Caco-2 (human colorectal adenocarcinoma) cells are used to model the intestinal epithelial barrier. The Simcyp (Version 19.0, Certara Inc., Sheffield, UK) minimal PBPK, which treats all organs other than the intestine and liver as a single compartment ([Rowland Yeo et al., 2010]), was selected, along with a single adjusting compartment (SAC) distribution model. The SAC is a nonphysiologic compartment that permits adjustment to the drug concentration profile in the systemic compartment ([Ke et al., 2016]).

Data set [4] can be described thus: Food effect clinical study in Chinese patients with CML (NCT03882281). Format: in vivo, human. From the text: In the first study, on food effects, 12 Chinese patients with CML were randomly divided into two groups (A and B) and the experiments divided into two periods. […] After a seven- day washout period, subjects in both groups took the drug interchangeably in period 2 (NCT03882281).

Data set [5] can be described thus: Human mass balance study with [14C]olverembatinib (NCT04126707). Format: in vivo.
Method: After a 3-day washout period, they were pretreated with 200 mg of oral itraconazole once daily for 4 days to inhibit CYP3A4 (Days 5–8). […] After a 3-day washout, subjects were pretreated with 600 mg of oral rifampicin once daily for 7 days to induce CYP3A4 (Days 5–11). […] Blood samples were collected immediately before and after drug administration at 0.5, 1, 2, 4, 6, 8, 12, 24, 48, 72, and 96 h.
Another data set has as its target T1, OATP1B1 (Homo sapiens, UniProt Q9Y6L6).
T1 sequence (Q9Y6L6 1-691): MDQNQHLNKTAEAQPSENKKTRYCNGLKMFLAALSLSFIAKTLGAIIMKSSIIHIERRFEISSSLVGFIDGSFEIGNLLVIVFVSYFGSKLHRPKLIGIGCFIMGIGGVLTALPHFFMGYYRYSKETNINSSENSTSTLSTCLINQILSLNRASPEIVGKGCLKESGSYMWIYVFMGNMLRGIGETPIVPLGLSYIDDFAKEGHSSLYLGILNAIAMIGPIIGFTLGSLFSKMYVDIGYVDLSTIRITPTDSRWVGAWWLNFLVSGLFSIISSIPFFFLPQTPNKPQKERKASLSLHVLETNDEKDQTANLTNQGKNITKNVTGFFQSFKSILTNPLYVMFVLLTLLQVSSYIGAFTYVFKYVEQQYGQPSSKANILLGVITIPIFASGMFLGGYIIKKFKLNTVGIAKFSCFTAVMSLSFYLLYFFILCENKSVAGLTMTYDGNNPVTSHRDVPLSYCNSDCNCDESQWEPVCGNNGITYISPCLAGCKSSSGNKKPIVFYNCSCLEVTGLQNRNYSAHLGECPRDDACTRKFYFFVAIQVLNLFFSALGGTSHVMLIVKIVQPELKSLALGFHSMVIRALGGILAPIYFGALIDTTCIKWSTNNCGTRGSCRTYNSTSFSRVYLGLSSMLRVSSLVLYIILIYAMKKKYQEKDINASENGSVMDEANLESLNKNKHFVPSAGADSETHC
Kind of data set: Transporter substrate/inhibitor assessment, OATP1B1. Format: in vitro ADME.

The target in the next data set is T2, OATP1B3 (Homo sapiens, UniProt Q9NPD5).
T2 sequence (Q9NPD5 1-702): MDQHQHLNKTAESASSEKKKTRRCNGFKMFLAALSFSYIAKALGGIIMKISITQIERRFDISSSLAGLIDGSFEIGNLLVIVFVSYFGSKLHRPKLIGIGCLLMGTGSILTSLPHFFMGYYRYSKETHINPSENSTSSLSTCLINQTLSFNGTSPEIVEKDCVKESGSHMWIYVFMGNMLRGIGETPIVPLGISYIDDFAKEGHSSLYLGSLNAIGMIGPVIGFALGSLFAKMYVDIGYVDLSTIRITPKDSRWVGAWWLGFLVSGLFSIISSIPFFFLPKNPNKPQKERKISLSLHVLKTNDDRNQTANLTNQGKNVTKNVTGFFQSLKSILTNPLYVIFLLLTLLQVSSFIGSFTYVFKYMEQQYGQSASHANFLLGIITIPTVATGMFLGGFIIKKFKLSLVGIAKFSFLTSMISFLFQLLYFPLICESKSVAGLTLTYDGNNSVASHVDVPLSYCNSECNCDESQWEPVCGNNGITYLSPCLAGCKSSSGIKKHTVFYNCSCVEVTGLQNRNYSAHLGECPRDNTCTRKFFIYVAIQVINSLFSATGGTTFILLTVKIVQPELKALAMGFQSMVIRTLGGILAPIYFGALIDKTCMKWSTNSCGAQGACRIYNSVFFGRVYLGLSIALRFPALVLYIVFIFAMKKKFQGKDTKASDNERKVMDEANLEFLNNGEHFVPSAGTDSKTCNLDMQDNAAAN
Put plainly: Transporter substrate/inhibitor assessment, OATP1B3. Format: in vitro ADME.

The nature of another data set: in vitro. Conditions: human.
Where [6] appears, read: Chinese CML patients, fed, 30 mg SD.
Where [7] appears, read: single radiolabeled 30 mg dose, healthy subjects.

`Cc1ccc(C(=O)Nc2ccc(CN3CCN(C)CC3)c(C(F)(F)F)c2)cc1C#Cc1cnc2[nH]ncc2c1` [olverembatinib, Olverembatinib]: in data set [1] (mean of three test concentrations, read-out: mean fu (fu,p, fraction unbound in plasma)), the fraction unbound is 0.0005. Besides, the fraction unbound at 80 ng/ml in data set [1] (test concentration 80 ng/ml, read-out: fu (N=3)) is 0.0007. In addition, the fraction unbound at 400 ng/ml in data set [1] (test concentration 400 ng/ml, read-out: fu (N=3)) was determined as 0.0004. Further, the fraction unbound at 4000 ng/ml in data set [1] (test concentration 4000 ng/ml, read-out: fu (N=3)) worked out at 0.0004. Further, the “Log Po:w” value in data set [2] came out at 3.6. Besides, the Papp in data set [3] was 0.08 ×10⁻⁶ cm/s. The “AUC Obs.” value in data set [4] (Chinese CML patients, fasting, 30 mg SD) was 237 h?ng/mL; in data set [4] (setting [6]), 276 h?ng/mL; in data set [5] (Chinese healthy volunteers, fasting, 26.85 mg SD), 153 h?ng/mL. Further, the “Tmax Obs. (median)” value in data set [4] (setting [6]) is 6.00 h. Moreover, the half-life in data set [4] (human, plasma, 30 mg, oral, patients with CML, data on file, read-out: mean apparent terminal elimination half-life (t1/2) (converted)) is 32.7 h. In addition, the Tmax was found to be 6 h in data set [4] (human, plasma, 30 mg, oral, patients with CML, data on file, read-out: median time to reach peak plasma concentration (Tmax)); 6 h in data set [4] (human, plasma, oral, Chinese CML patients, fasting, 30 mg SD, read-out: Tmax Obs. (median)); 6 h in data set [5] (male, human, plasma, oral, Chinese healthy volunteers, fasting, 26.85 mg SD, read-out: Tmax Obs. (median)). Further, the Cmax in data set [4] (human, plasma, oral, 30 mg, Chinese CML patients, fasting, 30 mg SD) came out at 8.72 ng/mL; in data set [4] (human, plasma, oral, 30 mg, Chinese CML patients, fed, 30 mg SD), 10.8 ng/mL; in data set [5] (male, human, plasma, oral, Chinese healthy volunteers, fasting, 26.85 mg SD) it was 8.09 ng/mL. The “cleared drug unchanged in feces” value in data set [5] (setting [7]) is “About 23.95%”. In addition, in data set [5] (setting [7]), the “eliminated as the parent drug in urine” value is on record as 0.02%. In addition, the “dose recovered in urine” value in data set [5] (single radiolabeled 30 mg dose, healthy subjects, within 96 h) worked out at 1.57%. Also, in data set [5] (single radiolabeled 30 mg dose, healthy subjects, within 216 h), the “dose recovered in feces” value was 87.68%. On OATP1B1, the “substrate or inhibitor of OATP1B1” value was “neither a substrate nor inhibitor”. Besides, the “substrate or inhibitor of OATP1B3” value on OATP1B3 is recorded as “neither a substrate nor inhibitor”. The compound further yielded a microsomal CLint in “in vitro” of 5.26 µL/min/mg.
